From patent US9452997B2, “Piperidine and piperazine derivatives as autotaxin inhibitors” (Merck Patent GmbH, priority 2009, dated 2016)

Biological target: T1, Recombinant autotaxin (Homo sapiens, UniProt Q13822)
T1 construct: made in house; host or cells: Hi5 insect cells (baculovirus)
Assay: Autotaxin assay (Amplex Red, LPC substrate)
Assay type: biochemical
Details: recombinant autotaxin, LPC substrate, Amplex Red detection; values given as upper bounds
How it was run: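 Recombinant autotaxin (Hi5 baculovirus, 16 ng) pre-incubated with compound 30 min at 22° C, then reacted with 75 μM egg LPC for 90 min at 37° C. Choline released is coupled to H2O2 and Amplex Red fluorescence (ex 485/em 612 nm). IC50 from ten 1:3 dilutions from 30 μM, duplicates, normalised to 500 μM C14 LPA.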

SMILES	IC50 [nM]
O=C(Cc1ccc2[nH]nnc2c1)N1CCC(N2CCN(C(=O)Cc3cc(C(F)(F)F)cc(C(F)(F)F)c3)CC2)CC1 [Compound 141, 2-(1H-Benzotriazol-5-yl)-1-(4-{4-[2-(3,5-bis-trifluoromethyl-phenyl)-acetyl]-piperazin-1-yl}-piperidin-1-yl)-ethanone]	< 10000
O=C(Cc1cc(C(F)(F)F)cc(C(F)(F)F)c1)N1CCN(C2CCN(C(=O)c3ccc4[nH]c(=O)oc4c3)CC2)CC1 [Compound 142, 6-(4-{4-[2-(3,5-Bis-trifluoromethyl-phenyl)-acetyl]-piperazin-1-yl}-piperidine-1-carbonyl)-3H-benzooxazol-2-one]	< 10000
O=C(OCc1ccc(OC(F)(F)F)c(Cl)c1)N1CCC(N2CCN(C(=O)c3ccc4[nH]nnc4c3)CC2)CC1 [Compound 143, 4-[4-(1H-Benzotriazole-5-carbonyl)-piperazin-1-yl]-piperidine-1-carboxylic acid 3-chloro-4-trifluoromethoxy-benzyl ester]	< 1000
O=C(OCc1c(F)c(F)c(C(F)(F)F)c(F)c1F)N1CCC(N2CCN(C(=O)c3ccc4[nH]nnc4c3)CC2)CC1 [Compound 144, 4-[4-(1H-Benzotriazole-5-carbonyl)-piperazin-1-yl]-piperidine-1-carboxylic acid 2,3,5,6-tetrafluoro-4-trifluoromethyl-benzyl ester]	< 1000
O=C(OCc1ccc(Cl)c(OC(F)(F)F)c1)N1CCN(C2CCN(C(=O)c3ccc4[nH]nnc4c3)CC2)CC1 [Compound 145, 4-[1-(1H-Benzotriazole-5-carbonyl)-piperidin-4-yl]-piperazine-1-carboxylic acid 4-chloro-3-trifluoromethoxy-benzyl ester]	< 10000
O=C(OCc1cc(Cl)cc(Br)c1)N1CCN(C2CCN(C(=O)c3ccc4[nH]nnc4c3)CC2)CC1 [Compound 146, 4-[1-(1H-Benzotriazole-5-carbonyl)-piperidin-4-yl]-piperazine-1-carboxylic acid 3-bromo-5-chloro-benzyl ester]	< 1000
Cc1cc(C)cc(COC(=O)N2CCN(C3CCN(C(=O)c4ccc5[nH]nnc5c4)CC3)CC2)c1 [Compound 147, 4-[1-(1H-Benzotriazole-5-carbonyl)-piperidin-4-yl]-piperaizne-1-carboxylic acid 3,5-dimethyl-benzyl ester]	< 1000
O=C(OCc1cc(Br)cc(Br)c1)N1CCN(C2CCN(C(=O)c3ccc4[nH]nnc4c3)CC2)CC1 [Compound 148, 4-[1-(1H-Benzotriazole-5-carbonyl)-piperidin-4-yl]-piperazine-1-carboxylic acid 3,5-dibromo-benzyl ester]	< 1000
CSc1ccc(COC(=O)N2CCN(C3CCN(C(=O)c4ccc5[nH]nnc5c4)CC3)CC2)cc1 [Compound 149, 4-[1-(1H-Benzotriazole-5-carbonyl)-piperidin-4-yl]-piperazine-1-carboxylic acid 4-methylsulfanyl-benzyl ester]	< 10000
COc1cc(COC(=O)N2CCN(C3CCN(C(=O)c4ccc5[nH]nnc5c4)CC3)CC2)cc(OC)c1 [Compound 150, 4-[1-(1H-Benzotriazole-5-carbonyl)-piperidin-4-yl]-piperazine-1-carboxylic acid 3,5-dimethoxy-benzyl ester]	< 10000
CCc1ccc(COC(=O)N2CCN(C3CCN(C(=O)c4ccc5[nH]nnc5c4)CC3)CC2)cc1 [Compound 151, 4-[1-(1H-Benzotriazole-5-carbonyl)-piperidin-4-yl]-piperazine-1-carboxylic acid 4-ethyl-benzyl ester]	< 1000
O=C(OCc1cc(F)cc(Cl)c1)N1CCN(C2CCN(C(=O)c3ccc4[nH]nnc4c3)CC2)CC1 [Compound 152, 4-[1-(1H-Benzotriazole-5-carbonyl)-piperidin-4-yl]-piperazine-1-carboxylic acid 3-chloro-5-fluoro-benzyl ester]	< 1000
O=C(OCc1cc(C(F)(F)F)cc(C(F)(F)F)c1)N1CCN(C2CCN(S(=O)(=O)c3ccc4[nH]c(=O)sc4c3)CC2)CC1 [Compound 153, 4-[1-(2-Oxo-2,3-dihydro-benzothiazole-6-sulfonyl)-piperidin-4-yl]-piperazine-1-carboxylic acid 3,5-bis-trifluoromethyl-benzyl ester]	< 10000
O=C(OCc1cc(F)cc(Br)c1)N1CCN(C2CCN(C(=O)c3ccc4[nH]nnc4c3)CC2)CC1 [Compound 154, 4-[1-(1H-Benzotriazole-5-carbonyl)-piperidin-4-yl]-piperazine-1-carboxylic acid 3-bromo-5-fluoro-benzyl ester]	< 1000
O=C(OCc1ccc(Br)cc1)N1CCN(C2CCN(C(=O)c3ccc4[nH]nnc4c3)CC2)CC1 [Compound 155, 4-[1-(1H-Benzotriazole-5-carbonyl)-piperidin-4-yl]-piperazine-1-carboxylic acid 4-bromo-benzyl ester]	< 1000
O=C(OCc1ccc(Br)cc1F)N1CCN(C2CCN(C(=O)c3ccc4[nH]nnc4c3)CC2)CC1 [Compound 156, 4-[1-(1H-Benzotriazole-5-carbonyl)-piperidin-4-yl]-piperazine-1-carboxylic acid 4-bromo-2-fluoro-benzyl ester]	< 10000
O=C(OCc1c(F)cc(Br)cc1F)N1CCN(C2CCN(C(=O)c3ccc4[nH]nnc4c3)CC2)CC1 [Compound 157, 4-[1-(1H-Benzotriazole-5-carbonyl)-piperidin-4-yl]-piperazine-1-carboxylic acid 4-bromo-2,6-difluoro-benzyl ester]	< 10000
O=C(OCc1ccc(C(F)(F)F)c(F)c1)N1CCN(C2CCN(C(=O)c3ccc4[nH]nnc4c3)CC2)CC1 [Compound 158, 4-[1-(1H-Benzotriazole-5-carbonyl)-piperidin-4-yl]-piperazine-1-carboxylic acid 3-fluoro-4-trifluoromethyl-benzyl ester]	< 1000
O=C(c1ccc2[nH]nnc2c1)N1CCC(N2CCN(C(=O)c3cc4cc(Br)ccc4o3)CC2)CC1 [Compound 159, (1H-Benzotriazol-5-yl)-{4-[4-(5-bromo-benzofuran-2-carbonyl)-piperazin-1-yl]-piperidin-1-yl}-methanone]	< 10000
O=C(COc1ccc(OC(F)(F)F)cc1)N1CCN(C2CCN(C(=O)c3ccc4[nH]nnc4c3)CC2)CC1 [Compound 160, 1-{4-[1-(1H-Benzotriazole-5-carbonyl)-piperidin-4-yl]-piperazin-1-yl}-2-(4-trifluoromethoxy-phenoxy)-ethanone]	< 10000
O=C(OCc1cc(C(F)(F)F)cc(C(F)(F)F)c1)N1CCN(C2CCN(C(=O)c3ccc4[nH]c(=S)[nH]c4c3)CC2)CC1 [Compound 161, 4-[1-(2-Thioxo-2,3-dihydro-1H-benzoimidazole-5-carbonyl)-piperidin-4-yl]-piperazine-1-carboxylic acid 3,5-bis-trifluoromethyl-benzyl ester]	< 1000
O=C(OCc1cc(C(F)(F)F)cc(C(F)(F)F)c1)N1CCC(N2CCN(C(=O)c3ccc4[nH]nnc4c3)CC2)CC1 [Compound 162, 4-[4-(1H-Benzotriazole-5-carbonyl)-piperazin-1-yl]-piperidine-1-carboxylic acid 3,5-bis-trifluoromethyl-benzyl ester]	< 1000
